# Measurements taken from patent US10274488B2, “Glycan arrays on PTFE-like aluminum coated glass slides and related methods” (Academia Sinica, priority 2008, dated 2019).
# Legend:
# [1] = test system: cellulase from T. reesei; assay: Enzymatic hydrolysis in solution with cellulase from T. reesei, MS-TOF readout; format: biochemical, Trichoderma reesei; details: reaction in solution
# Experimental: (§1) Enzymatic hydrolysis of the immobilized poly-fluorinated cellobiose 8 (see FIG. 14) was first conducted in situ on the phosphonic acid slide surface. Three commercially available cellulases, Aspergillus niger (A. niger), Trichoderma reesei (T. reesei), and Trichoderma viride (T. viride) were prepared separately at 5 U/mL in a sodium acetate (25 mM) buffer solution (pH 5) and loaded onto the functionalized slide which has been divided into 16 wells using Fast Frame reaction chambers. For comparison, an aliquot of enzyme solution (100 μL) was added to the solution of fluorinated cellobiose (100 μL of 0.5 mM) in eppendorfs to carry out the enzymatic hydrolysis reactions in solution. After the reaction, it was transferred to the empty wells of the same slide. Each well was rinsed separately three times with de-ionized water and the slide was dried again under high vacuum before subjecting to MS-TOF analysis.
# (§2) Under MS-TOF analysis, the clean background baseline allowed calculation of the percentage of hydrolyzed components for each sample. As shown in the MS-TOF results in FIG. 20, percentages of hydrolyzed products are calculated from the peak intensities of each spectrum. According to implementations of experimental data shown in FIG. 20, MS-TOF data of enzymatic hydrolysis of poly-fluorinated cellobiose in solution in FIG. 20A and immobilized on PTFE-like ACG slide in FIG. 20B. The control are the same experimental conditions run without enzymes in (a); (b), (c), and (d) are experimental conditions with the cellulase proteins from A. niger (b), T. reesei (c), and T. viride (d).
# (§3) Cellulase was prepared (5 U/mL in 25 mM pH 5.05 NaOAc buffer solution). Substrate was also dissolved in NaOAc buffer solution (25 mM, pH 5.05) to give 0.5 mM substrate solution. Add 100 uL cellulase solution to 100 uL substrate solution in eppendorf to have a 2.5 U/mL cellulase solution with 0.25 mM substrate. This solution was incubated in 37° C. for 18 hours. Add 100 μL incubated solution onto the slide loaded in FAST® Frame. Put the slide in dry box to remove the water, and then use high vacuum to remove trace water. 100 μL water was used to rinse each well of the FAST® Frame multi-slide plate to solve and remove the salt of the buffer solution. Remove any residual water on the plate by high vacuum and then analyzed the slide by MALDI-TOF Ultra-Flex II.
# [2] = test system: exoglucanase L3; assay: Enzymatic hydrolysis on the PTFE-like ACG surface with exoglucanase L3, MS-TOF assay; format: biochemical, Clostridium thermocellum; details: substrate immobilized on the PTFE-like ACG surface, 24 hours of incubation
# Experimental: For each carbohydrate, a specific enzyme was added: (a) is the control run without enzymes, (b) is exoglucanase L3, and (c) is endoglucanase 44A. […]
# For comparison and as illustrated according to implementations shown in FIG. 23, substrate 8, 9, and 10 were immobilized on the PTFE-like ACG surface and carried out the cellulase hydrolysis on the surface directly, after the same washing procedures, these slides were subjected to MS-TOF assay. […] The endoglucanase 44A can't accept compound 8 or 9 as a substrate. […] From the above results, the cellotetraose substrate 10 was the best carbohydrate to create array on the PTFE-like ACG surface for the experiments conducted. By using this array, the activity and specificity of unknown cellulase may be examined.
# Cellulase was prepared (5 U/mL in 25 mM pH 5.05 NaOAc buffer solution). Substrate was also dissolved in NaOAc buffer solution (25 mM, pH 5.05) to give 0.5 mM substrate solution. Add 50 μL cellulase solution to 50 μL substrate solution onto the glass slide which was loaded in FAST® Frame multi-slide plate to have a 2.5 U/mL cellulase solution with 0.25 mM substrate. […] Put the slide in dry box to remove the water, and then use high vacuum to remove trace water. 100 uL water was used to rinse each well of the FAST® Frame multi-slide plate to solve and remove the salt of the buffer solution. Remove any residual water on the plate by high vacuum and then analyzed the slide by MALDI-TOF Ultra-Flex II.
# The genomic DNA of Sulfolobus solfataricus (ATCC 35092) and Clostridium thermocellum (ATCC 27405) were obtained from the ATCC biological resource center. The Sso7d (NCBI accession number: AAK42090) gene fragment was amplified directly from the Sulfolobus solfataricus genome by polymerase chain reaction (PCR) with forward 5′ […] 3′ (SEQ ID NO: 1) and reverse 5′ […] 3′ (SEQ ID NO: 2) primers. […]
# [3] = test system: cellulase from A. niger; assay: Enzymatic hydrolysis in solution with cellulase from A. niger, MS-TOF readout; format: biochemical, Aspergillus niger; details: reaction in solution
# Experimental: as §1, §2, §3
SMILES,"Biose (un-hydrolyzed cellobiose), percentage of hydrolyzed pattern ([1]; T. reesei cellulase, pH 5) [%]","F-tail, percentage of hydrolyzed pattern ([1]; T. reesei cellulase, pH 5) [%]","Glucose, percentage of hydrolyzed pattern ([1]; T. reesei cellulase, pH 5) [%]","Triose, percentage of hydrolyzed pattern ([1]; T. reesei cellulase, pH 5)",Cleavage of the substrate by exoglucanase L3 (in words) [2],"Biose (un-hydrolyzed cellobiose), percentage of hydrolyzed pattern ([3]; A. niger cellulase, pH 5) [%]","F-tail, percentage of hydrolyzed pattern ([3]; A. niger cellulase, pH 5)","Glucose, percentage of hydrolyzed pattern ([3]; A. niger cellulase, pH 5) [%]","Triose, percentage of hydrolyzed pattern ([3]; A. niger cellulase, pH 5) [%]","Triose, percentage of hydrolyzed pattern ([3]; A. niger cellulase, pH 5, listed as cellobiose) [%]","Hydrolysis of the substrate by the enzyme from A. niger, one glucose unit at a time (in words) [3]",Hydrolysis of the substrate by the enzyme from T. reesei compared with the enzymes from the other two species (in words) [1]
"O=C(NCCCCCO[C@@H]1O[C@H](CO)[C@@H](O[C@@H]2O[C@H](CO)[C@@H](O)[C@H](O)[C@H]2O)[C@H](O)[C@H]1O)OCCCC(F)(F)C(F)(F)C(F)(F)C(F)(F)C(F)(F)C(F)(F)C(F)(F)C(F)(F)F [Compound 8, [(4,4,5,5,6,6,7,7,8,8,9,9,10,10,11,11,12,12,12-nonadecafluorododecoxycarbonyl-amino)pentyl] ß-D-cellobioside]",7,0,93,0/0%,only cleaved a fraction,64,0/0%,18,18,8,very slow reaction rate,–
"O=C(NCCCCCO[C@@H]1O[C@H](CO)[C@@H](O[C@@H]2O[C@H](CO)[C@@H](O[C@@H]3O[C@H](CO)[C@@H](O)[C@H](O)[C@H]3O)[C@H](O)[C@H]2O)[C@H](O)[C@H]1O)OCCCC(F)(F)C(F)(F)C(F)(F)C(F)(F)C(F)(F)C(F)(F)C(F)(F)C(F)(F)C(F)(F)F [Compound 9, [(4,4,5,5,6,6,7,7,8,8,9,9,10,10,11,11,12,12,12-nonadecafluorododecoxycarbonyl-amino)pentyl] ß-D-glucopyranosyl-(1→4)-ß-D-glucopyranosyl-(1→4)- -ß-D-glucopyranoside]",–,–,–,–,cleaved the cellobiose quickly,–,–,–,–,–,very slow reaction rate,most efficiently
